Our source for the cell viability values is patent publication EP2253308A1, “Pharmaceutical composition comprising microbubbles for targeted tumor therapy” (Ludwig-Maximilians-Universität München, priority 2009, dated 2010).

This data set has as its system 293/KDR human kidney carcinoma tissue cultures. Put plainly: In vitro anti-proliferative efficacy, cell viability assay (formazan absorption) with or without ultrasound. Format: cell-based. Conditions: effect not affected by the application of ultrasound; 24 hours incubation; % of untreated cells. The protocol: The anti-proliferative efficacy of doxorubicin-loaded microbubbles according to Example 2 was determined in an in vitro experiment using 293/KDR human kidney carcinoma tissue cultures.
First, the cells were cultivated in 10% fetal calf serum activated Dulbecco's Modified Eagle Medium. Prior to the experiment, the cells were brought in suspension by trypsin/EDTA solution. A cell suspension of 200 µl containing about 6 x 10^4 cells was transferred into each well of a 96-well plate (Greiner Bio-One GmbH, Germany) and subsequently admixed with an aqueous solution of either doxorubicin, doxorubicin-loaded liposomes, or doxorubicin-loaded microbubbles (n = 10). The corresponding blank samples were prepared without doxorubicin (see Figure 3). Ultrasound with a frequency of 1 MHz, an intensity of 2 W/cm^2, and a duty cycle of 50% was applied directly onto each well using Sonitron 2000 (Rich-Mar Inc., USA). In order to avoid the presence of standing waves, the well plate was under laid with an absorbing gel pad.
After 24 hours of incubation the cell metabolic activity was measured using a cell viability assay. […] Purple formazan produced by viable cells could be measured by its UV/Vis absorption using FluostarOmega plate reader (BMG Labtech GmbH, Offenburg, Germany) at a wavelength of 590 nm (measurement) and a wavelength of 630 nm (reference). […]

`COc1cccc2c1C(=O)c1c(O)c3c(c(O)c1C2=O)C[C@@](O)(C(=O)CO)C[C@@H]3O[C@H]1C[C@H](N)[C@H](O)[C@H](C)O1` [free doxorubicin]: the cell viability was 62-64%.
